From patent US20080227222A1, “Method for the detection of target molecules by fluorescence polarization using peptide mimics” (priority 2007, published 2008)

What was measured:
[1] = tested on: anti-cortisol antibody (ACA); experiment: Competition ELISA: increasing cortisol against plate-coated phagotope for anti-cortisol antibody; assay type: binding; details: increasing amounts of cortisol, constant phage, FIG. 3
Method: Plates were coated with phagotopes and blocked as for the direct ELISA. […] Increasing amounts of cortisol was then added to 100 μl of specific antibody in 1% PBS-polyoxyethylene (20) sorbitan monolaurate. 100 μl replicates (4-6) of antibody/cortisol inhibitor was then left overnight.
The plates were washed and developed as for the direct ELISA. The results of these studies are illustrated in FIG. 3.

[2] = tested on: anti-cortisol antibody (ACA); experiment: ELISA binding of phagotopes to anti-cortisol antibody (biopanning screen); details: phagotope expressing peptide, FIG. 2
Method: Identification of reactive phagotopes was conducted by either direct, where the phagotopes are coated directly to the plate, or capture ELISA, were the phagotopes are tethered to the plate via the selection antibody. The two ELISA methods were employed because direct ELISA identifies highly reactive phagotopes that are likely to contain a strong motif, whereas the capture ELISA is more sensitive, therefore also selecting for phagotopes involving only weak interactions. For the direct ELISA, phage preparations were diluted in sterile PBS and duplicate samples of 100 μl/well were added to a 96-well microtitre plate. Plates were left overnight at 4° C., blocked for 2 hours at room temperature with 1% skimmed milk powder and 0.05% Tween 20 in PBS ph 7.4 and washed three times in Tris-buffered saline, pH 7.4, containing 0.05% polyoxyethylene (20) sorbitan monolaurate (TWEEN 20™). 100 μl of specific antibody diluted to 1 μg/ml in 1% PBS-polyoxyethylene (20) sorbitan monolaurate were added and left overnight. […] Absorbances were read at 415 nm after 30 minutes and 60 minutes. […]

[3] = tested on: anti-gamma-interferon antibody; experiment: Competition ELISA: increasing gamma-interferon against constant phage containing peptide mimic; assay type: binding; details: constant phage containing the mimic, detected with anti-phage antibody
Method: In order to identify peptide mimics, the procedure for described in Example 1 was followed. FA42™ anti-Gamma-interferon monoclonal antibody (Cellestis, Inc, Valencia, Calif.) was used in the screening of peptide mimics.
Identification of epitope sites that the peptides represented were then determined by comparing the peptide sequences with the known γ-interferon sequence. The identified peptides were then evaluated by the ability of gamma-interferon to inhibit binding of anti-γ-interferon antibody in ELISA. The results of this study is illustrated in FIG. 3 for peptide IFN-28. […] Phage binding was identified, in this study, using a specific anti-phage antibody.

[4] = tested on: anti-γ-interferon antibody (FA42); experiment: Competition of fluorescently tagged peptides with IFN-41 expressing phage for binding to FA42; details: fluorescently tagged peptide against phage
Method: Further analysis of the peptide mimics sought to ascertain whether these peptides operated in the same manner as they do when expressed on the surface of the phage. In order to ascertain if these peptides operated in the same manner as they do when expressed on the surface of the phage, a competition assay was performed. In this assay, the newly created peptides were used to compete with the peptides on the surface of the phage for binding to FA42.
A gradient of inhibition of IFN-41 expressing phage binding by the two peptides is shown. The control peptide (ACA-20) is a mimic of cortisol. […] Additionally, FIG. 5 illustrates gradient inhibition of IFN-41 and IFN-19 using anti-gamma-interferon antibody.

ACA 20 (1): phagotope expressing peptide with high anti-cortisol antibody binding; probably clone of ACA-20 (YFTPVFINPTQV)
competition by cortisol for antibody binding [1]: overlapping, dose-response competitive binding curves | anti-cortisol antibody binding [2]: comparatively high anti-cortisol antibody binding

ACA 20 (2): phagotope expressing peptide with high anti-cortisol antibody binding; probably clone of ACA-20 (YFTPVFINPTQV)
competition by cortisol for antibody binding [1]: overlapping, dose-response competitive binding curves | anti-cortisol antibody binding [2]: comparatively high anti-cortisol antibody binding

SQYENNH (CSQYENNHC; listed as Homo sapiens) [IFN-28]
competition for binding to anti-gamma-interferon antibody [3]: graded competition

TQYEQHY (CTQYEQHYC; listed as Homo sapiens) [IFN-41]
competition with IFN-41 expressing phage for binding to anti-γ-interferon antibody [4]: competed

TQYSQQM (CSQYSQLYC) [IFN-19]
competition with IFN-41 expressing phage for binding to anti-γ-interferon antibody [4]: competed

YFTPVFINPTQV (listed as Homo sapiens) [ACA-20, control peptide in the gamma-interferon assay]
competition with IFN-41 expressing phage for binding to anti-γ-interferon antibody [4]: did not compete
